According to patent publication US8163724B2, “Glucocorticosteroids, processes for their preparation, pharmaceutical compositions containing them and their use in therapy” (AstraZeneca AB, priority 2007, dated 2012):
pIC50: −log10 of the molar value.

Molecular target: T1, recombinant human GR (Homo sapiens, UniProt P04150)
T1 construct: purchased Panvera/Invitrogen P2812 (kit P2893)
T1 sequence (P04150 1-777): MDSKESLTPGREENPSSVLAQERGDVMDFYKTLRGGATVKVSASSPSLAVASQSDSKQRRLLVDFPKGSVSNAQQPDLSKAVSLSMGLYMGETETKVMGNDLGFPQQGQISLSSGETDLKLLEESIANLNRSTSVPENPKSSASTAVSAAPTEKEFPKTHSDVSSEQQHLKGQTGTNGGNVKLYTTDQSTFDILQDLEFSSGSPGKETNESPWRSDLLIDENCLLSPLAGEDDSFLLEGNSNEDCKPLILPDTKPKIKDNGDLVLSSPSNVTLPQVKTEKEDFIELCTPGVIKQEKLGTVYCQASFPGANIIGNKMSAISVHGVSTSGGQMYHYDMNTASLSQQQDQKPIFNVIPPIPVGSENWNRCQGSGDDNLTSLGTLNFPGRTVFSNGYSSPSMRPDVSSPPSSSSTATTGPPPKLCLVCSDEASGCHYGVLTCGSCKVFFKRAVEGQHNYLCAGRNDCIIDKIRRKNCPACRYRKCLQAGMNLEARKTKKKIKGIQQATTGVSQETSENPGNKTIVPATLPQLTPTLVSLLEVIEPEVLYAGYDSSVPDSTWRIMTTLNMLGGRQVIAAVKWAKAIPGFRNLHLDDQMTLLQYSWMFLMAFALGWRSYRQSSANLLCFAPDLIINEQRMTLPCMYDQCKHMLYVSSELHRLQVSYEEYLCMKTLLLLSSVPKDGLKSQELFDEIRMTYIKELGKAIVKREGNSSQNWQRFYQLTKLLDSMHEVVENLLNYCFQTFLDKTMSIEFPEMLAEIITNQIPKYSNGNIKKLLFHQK
Test: Human Glucocorticoid Receptor (GR) Assay (fluorescence polarization, Panvera/Invitrogen kit)
Assay type: binding
Details: fluorescence polarization; GS Red tracer; 2 hours at room temperature; 100% control 10 μM Dexamethasone; read-out: Inhibition of GR binding, IC50
How it was run: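 Fluorescence polarization competition with recombinant GR and GS Red fluorescent ligand plus stabilizing peptide and DTT in potassium phosphate/sodium molybdate/EDTA buffer with DMSO. Incubated 2 hours at room temperature in the dark; 0% control DMSO, 100% control 10 μM dexamethasone.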

Structure (SMILES) | pIC50
C[C@]12Cc3cnn(-c4ccc(F)c(CO)c4)c3C=C1CC[C@@H]1[C@@H]2[C@@H](O)C[C@@]2(C)[C@H]1CC[C@]2(OC(=O)C1CC1)C(=O)SCF [Example 139, (1R,3aS,3bS,10aR,10bS,11S,12aS)-7-[4-Fluoro-3-(hydroxymethyl)phenyl]-1-{[(fluoromethyl)thio]carbonyl}-11-hydroxy-10a,12a-dimethyl-1,2,3,3a,3b, 4,5,7,10,10a,10b,11,12,12a-tetradecahydrocyclopenta[5,6]naphtho[1,2-f]indazol-1-yl cyclopropanecarboxylate] | 8.46
COCC(=O)O[C@]1(C(=O)SCC#N)CC[C@H]2[C@@H]3CCC4=Cc5c(cnn5-c5ccc(F)c(CO)c5)C[C@]4(C)[C@H]3[C@@H](O)C[C@@]21C [Example 140, (1R,3aS,3bS,10R,10bS,11S,12aS)-1-{[(Cyanomethyl)thio]carbonyl}-7-[4-fluoro-3-(hydroxymethyl)phenyl]-11a,12a-dimethyl-1,2,3,3a,3b,4,5,7,10,10a,10b,11,12,12a-tetradecahydrocyclopenta[5,6]naphtho[1,2-f]indazol-1-yl Methoxyacetate] | 8.64
C[C@@H]1C[C@H]2[C@@H]3CCC4=Cc5c(cnn5-c5ccc(F)cc5)C[C@]4(C)[C@H]3[C@@H](O)C[C@]2(C)[C@@]1(OC(=O)c1ccco1)C(=O)SCC#N [Example 141, (1R,2R,3aS,3bS,10aR,10bS,11S,12aS)-1-{[(Cyanomethyl)thio]carbonyl}-7-(4-fluorophenyl)-11-hydroxy-2,10a,12a-trimethyl-1,2,3,3a,3b,4,5,7,10,10a,10b,11,12,12a-tetradecahydrocyclopenta[5,6]naphtho[1,2-f]indazol-1-yl furan-2-carboxylate] | 7.89
Cc1cc(-n2ncc3c2C=C2CC[C@@H]4[C@H]([C@@H](O)C[C@@]5(C)[C@H]4CC[C@]5(OC(=O)C4CC4)C(=O)OCC#N)[C@@]2(C)C3)ccn1 [Example 142, Cyanomethyl(1R,3aS,3bS,10aR,10bS,11S,12aS)-1-[(cyclopropylcarbonyl)oxy]-11-hydroxy-10a,12a-dimethyl-7-(2-methylpyridin-4-yl)-1,2,3,3a,3b,4,5,7,10,10a,10b,11,12,12a-tetradecahydrocyclopenta[5,6]naphtho[1,2-]indazole-1-carboxylate] | 8.80
C[C@]12Cc3cnn(-c4ccccn4)c3C=C1CC[C@@H]1[C@@H]2[C@@H](O)C[C@@]2(C)[C@H]1CC[C@]2(OC(=O)C1CC1)C(=O)OCC#N [Example 143, Cyanomethyl(1R,3aS,3bS,10aR,10bS,11S,12aS)-1-[(cyclopropylcarbonyl)oxy]-11-hydroxy-10a,12a-dimethyl-7-pyridin-2-yl-1,2,3,3a,3b,4,5,7,10,11a,10b,11,12,12a-tetradecahydrocyclopenta[5,6]naphtho[1,2-f]indazole-1-carboxylate] | 8.82
C[C@]12Cc3cnn(-c4ccc(F)c(CO)c4)c3C=C1CC[C@@H]1[C@@H]2[C@@H](O)C[C@@]2(C)[C@H]1CC[C@]2(OC(=O)C1CC1)C(=O)SCC#N [Example 144, (1R,3aS,3bS,10aR,10bS,11S,12aS)-1-{[(Cyanomethyl)sulfanyl]carbonyl}-7-[4-fluoro-3-(hydroxymethyl)phenyl-]-11-hydroxy-10a,12a-dimethyl-1,2,3,3a,3b, 4,5,7,10,10a,11,12,12a-tetradecahydrocyclopenta[5,6]naphtho[1,2-f]indazol-1-yl Cyclopropanecarboxylate] | 8.42
C[C@]12Cc3cnn(-c4ccc(F)c(CO)c4)c3C=C1CC[C@@H]1[C@@H]2[C@@H](O)C[C@@]2(C)[C@H]1CC[C@]2(OC(=O)C1CC1)C(=O)OCC#N [Example 145, Cyanomethyl(1R,3aS,3bS,10aR,10bS,11S,12aS)-1-[(cyclopropylcarbonyl)oxy]-7-[4-fluoro-3-(hydroxymethyl)phenyl]-11-hydroxy-10a,12a-dimethyl-1,2,3,3a,3b,4,5,7,10,10a,10b,11,12,12a-tetradecahydrocyclopenta[5,6]naphtho[1,2-f]indazole-1-carboxylate] | 8.49
C[C@]12Cc3cnn(-c4ccc(F)cc4)c3C=C1CC[C@@H]1[C@@H]2[C@@H](O)C[C@@]2(C)[C@H]1CC[C@]2(OC(=O)C1(C#N)CC1)C(=O)SCC#N [Example 146, (1R,3aS,3bS,10aR,10bS,11S,12aS)-1-{[(Cyanomethyl)sulfanyl]carbonyl}-7-(4-fluorophenyl)-11-hydroxy-10a,12a-dimethyl-1,2,3,3a,3b,4,5,7,10,10a,10b,11,12,12a-tetradecahydrocyclopenta[5,6]naphtho[1,2-f]indazol-1-yl 1-cyanocyclopropane Carboxylate] | 8.47
C[C@]12Cc3cnn(-c4ccccn4)c3C=C1CC[C@@H]1[C@@H]2[C@@H](O)C[C@@]2(C)[C@H]1CC[C@]2(OC(=O)C1CC1)C(=O)SCF [Example 149, (1R,3aS,3bS,10aR,10bS,11S,12aS)-1-{[(Fluoromethyl)sulfanyl]carbonyl}-11-hydroxy-10a,12a-dimethyl-7-pyridin-2-yl-1,2,3,3a,3b,4,5,7,10,10a,10b,11,12,12a-tetradecahydrocyclopenta[5,6]naphtho[1,2-f]indazol-1-yl cyclopropane Carboxylate] | 8.30
C[C@]12Cc3cnn(-c4ccc(Cl)cn4)c3C=C1CC[C@@H]1[C@@H]2[C@@H](O)C[C@@]2(C)[C@H]1CC[C@]2(OC(=O)C1CC1)C(=O)SCF [Example 150, (1R,3aS,3bS,10aR,10bS,11S,12aS)-7-(5-Chloropyridin-2-yl)-1-{[(fluoromethyl)sulfanyl]carbonyl}-11-hydroxy-10a,12a-dimethyl-1,2,3,3a,3b,4,5,7,10,10a,10b,11,12,12a-tetradecahydrocyclopenta[5,6]naphtho[1,2-f]indazol-1-yl cyclopropane Carboxylate] | 7.68
C[C@]12Cc3cnn(-c4ccc(F)nc4)c3C=C1CC[C@@H]1[C@@H]2[C@@H](O)C[C@@]2(C)[C@H]1CC[C@]2(OC(=O)C1CC1)C(=O)SCC#N [Example 152, (1R,3aS,3bS,10aR,10bS,11S,12aS)-1-{[(Cyanomethyl)sulfanyl]carbonyl}-7-(6-fluoropyridin-3-yl)-11-hydroxy-10a,12a-dimethyl-1,2,3,3a,3b,4,5,7,10,10a,10b,11,12,12a-tetradecahydrocyclopenta[5,6]naphtho[1,2-f]indazol-1-yl cyclopropanecarboxylate] | 8.15
CSC(=O)[C@@]1(OC(=O)C2CC2)CC[C@H]2[C@@H]3CCC4=Cc5c(cnn5-c5ccc(F)nc5)C[C@]4(C)[C@H]3[C@@H](O)C[C@@]21C [Example 153, (1R,3aS,3bS,10aR,10bS,11S,12aS)-7-(6-Fluoropyridin-3-yl)-11-hydroxy-10a,12a-dimethyl-1-[(methylsulfanyl)carbonyl]-1,2,3,3a,3b,4,5,7,10,10a,10b,11,12,12a-tetradecahydrocyclopenta[5,6]naphtho[1,2-f]indazol-1-yl cyclopropanecarboxylate] | 8.62
